One series is described as follows: physchem. Type of series: physicochemical. The settings on record: cells or culture medium, 3rd day, mean ± SD, n = 3, read-out: Peptide Remaining Concentration (%), Negative Control, 3rd Day. The protocol:
OD-corrected P. toxinivorans was transferred to the 96-well microplate in a solution with fresh culture media and individual peptides. For all experimental conditions, microplates were prepared to allow different sampling times over 7 days of incubation in a shaker incubator at 150 rpm and 28 °C. Three different plates were initially prepared maintaining the same conditions, and they were, respectively, taken to be considered as sampling time at 0, 3, and 7th days. This procedure was established in order to sample only once from each well to avoid the effect of differing volumes and potential contamination. At each sampling time, 150 µL were taken and added to 150 µL of 80% aqueous methanol solution with 2% formic acid (in a 1.5 mL centrifuge tube) in order to kill bacteria and stop their metabolism, as well as to precipitate large proteins, which could affect analytical procedures. Samples were centrifuged for 15 min at 13,000× g. Supernatants were recovered, 1:10 diluted (100:900 μL) in aqueous methanol 80% and stored at −20 °C until ultrahigh performance liquid chromatography coupled to mass spectrometry analysis (UPLC–MS). This experimental design was applied in all experiments in order to evaluate the biodegradation of peptides by P. toxinivorans. All experimental conditions were carried out in biological replicates (n = 3) and with negative controls without bacteria.
All peptides studied were analyzed by UPLC–PDA–MS/MS (Waters®, Manchester, UK) as described previously by Turner et al.. Briefly, chromatographic separation was carried out using a Waters ACQUITY UPLC BEH C18 column (1.7 µm, 2.1 × 100 mm) held at 60 °C. Samples were kept in the sample manager at 10 °C and the injection volume was 5 µL. Mobile phase consisted of (A) water + 0.025% formic acid and (B) acetonitrile + 0.025% formic acid at a flow rate of 0.6 mL/min. The gradient consisted of 2% B initial condition rising to 25% B at 0.5 min holding until 1.5 min, rising to 40% B at 3.0 min, increasing further to 50% B at 4 min, a quick rise to 95% B and 4.1 min and held until 4.5 min before dropping back to 2% B at 5 min. Detection wavelength was set at 238 nm. Mass spectrometric detection was performed with a triple quadrupole mass spectrometer (Waters Xevo TQ-XS, Manchester, UK) equipped with an electrospray ionization (ESI) interface operating in positive ionization mode. Operational parameters were as follow: 150 °C source temperature, 600 °C desolvation temperature, 600 L/h desolvation gas flow (N2), 150 L/h cone gas flow, and 0.15 mL/min collision gas flow (Ar). Capillary voltage was held at 1.0 kV. Multiple Reaction Monitoring (MRM) transitions used as well as retention time, chemical structure, and respective formula of peptides can be found in Table S2. […]

The nature of series [1]: enzymatic activity of a Sphingomonas species that possess mlr pathway. As to conditions: cited from earlier work.
A short description of series [2]: Paucibacter toxinivorans (2C20) culture (OD600 0.4) in R2A media, pure MC-LR. As to conditions: Paucibacter toxinivorans 2C20 strain, 28 °C, up to 7 days.
Series [3] in a line: Y2 strain culture; individual peptide, peptide mix, and M. aeruginosa crude extract. As to conditions: Sphingosinicella microcystinivorans (Y2 strain).
The nature of series [4]: Paucibacter toxinivorans (2C20) culture in R2A media with cyanopeptide mix. As to conditions: Paucibacter toxinivorans 2C20 strain, 28 °C, up to 7 days.
Series [5] can be described thus: enzymatic biodegradation product of Sphingopyxis sp. USTB05. As to conditions: cited from earlier work.
[6] abbreviates: Individual peptide, 10 μg/mL, UPLC-MS/MS.

Like-named read-outs stand apart in the source and are kept apart here. Numbered stars: 1 amine (or outer) side, 2 acyl side, 3 side chain; on linkers, the order of the positions; unused ones are H or OH. Bridge positions count the residues as written; N and C are the ends. Square brackets hold non-standard residues; d marks the D form. Peptide text beside a SMILES is read from it. hTyr = N[C@@H](CCc1ccc(O)cc1)C(=O)O; NMeA = CN[C@@H](C)C(=O)O; CO = O=C([*:1])[*:2]

For the compound `CC[C@H](C)[C@@H]1NC(=O)[C@@H]2CSC(=N2)[C@@H]([C@@H](C)CC)NC(=O)c2csc(n2)CNC(=O)[C@H]2N=C1O[C@@H]2C` [AC-A, aerucyclamide A], in the series “physchem” (In MIX: MC-LR 10 μg/mL, other cyanopeptides 1 µg/mL), the remaining at 72 h amounted to 109 ± 5.6%.

For `CSCC[C@@H]1NC(=O)[C@@H]2CSC(=N2)[C@@H](Cc2ccccc2)NC(=O)c2csc(n2)CNC(=O)[C@H]2N=C1O[C@@H]2C` [AC-D, aerucyclamide D], in “physchem” (setting [6]), the remaining at 72 h stood at 113 ± 1.6%.

For `CC(C)[C@@H]1NC(=O)[C@H](NC(=O)N[C@@H](Cc2ccc(O)cc2)C(=O)O)CCCCNC(=O)[C@H](Cc2ccccc2)NC(=O)[C@H](C)N(C)C(=O)[C@H](CCc2ccc(O)cc2)NC1=O` [ANBP-A, anabaenopeptin A] ({Tyr-CO}-[dK]V[hTyr][NMeA]F; lactam 1-C), in the series “physchem” (setting [6]), the remaining at 72 h is 112 ± 8.1%.

Regarding `CC(C)[C@@H]1NC(=O)[C@H](NC(=O)N[C@@H](CCCNC(=N)N)C(=O)O)CCCCNC(=O)[C@H](Cc2ccccc2)NC(=O)[C@H](C)N(C)C(=O)[C@H](CCc2ccc(O)cc2)NC1=O` [ANBP-B, anabaenopeptin B] ({Arg-CO}-[dK]V[hTyr][NMeA]F; lactam 1-C), the remaining at 72 h in the series “physchem” (setting [6]) stood at 100 ± 17.1%.

Turning to Adda-Glu-Mdha-Ala-Leu-Masp-Arg, the fragment found entry in series [1] is given as “linearized MC-LR (biodegradation product A)”. For the same compound, the cleaved bond result in series [2] is “Arg-Adda, day 3”. In addition, the not cleaved entry in series [3] is on record as “did not degrade any cyanobacterial peptides”.

Take Adda-Glu-Mdha-Ala-Leu-Masp-Phe: the cleaved bond entry in series [4] was “Phe-Adda, day 7”. Further, the not cleaved result in series [3] is “did not degrade any cyanobacterial peptides”.

Regarding Adda-Glu-Mdha-Ala-Tyr-Masp-Arg, in series [5], the fragment found entry is recorded as “linearized MC-YR (peptide C)”. In series [4], the cleaved bond entry was “Arg-Adda, day 7”. Moreover, in series [3], the not cleaved result was “did not degrade any cyanobacterial peptides”.

The record behind these values is PMC8068134 (Toxins, 2021).
